The source of these data is patent publication US7868026B2, “Therapeutic compounds” (Pfizer Inc., priority 2005, dated 2011).

T1 sequence (P08684 whole entry): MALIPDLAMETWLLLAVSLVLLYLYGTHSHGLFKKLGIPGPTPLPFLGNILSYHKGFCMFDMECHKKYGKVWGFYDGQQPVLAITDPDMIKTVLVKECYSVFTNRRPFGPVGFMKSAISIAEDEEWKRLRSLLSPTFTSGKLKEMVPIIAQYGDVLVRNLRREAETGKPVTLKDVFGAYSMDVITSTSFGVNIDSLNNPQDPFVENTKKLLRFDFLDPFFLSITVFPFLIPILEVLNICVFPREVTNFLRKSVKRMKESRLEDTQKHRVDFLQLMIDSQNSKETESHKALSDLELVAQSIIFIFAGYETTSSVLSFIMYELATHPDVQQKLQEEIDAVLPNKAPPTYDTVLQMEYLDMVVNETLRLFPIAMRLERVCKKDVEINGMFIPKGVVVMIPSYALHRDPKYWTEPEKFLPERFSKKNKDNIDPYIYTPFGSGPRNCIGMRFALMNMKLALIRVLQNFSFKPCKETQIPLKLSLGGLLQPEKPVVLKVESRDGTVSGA

One assay concerns the target T1, CYP3A4 (Homo sapiens, UniProt P08684). The assay is described as follows: Determination of compound Kiapp against recombinant CYP3A4 enzyme (BFC fluorescent substrate). The note with it: Baculo. enzyme preparation, read-out: Kiapp (BFC, Baculo.). Type of assay: biochemical. Summed up:
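Kiapp derived from initial velocities over the first 5 min of BFC (5 uM) oxidation, using Morrison's tight-binding equation for non-partial and Szedlacsek's for partial inhibitors. Inhibitor first pre-incubated ≥30 min with CYP3A4 (5.5 or 8 nM, ±b5) in pH 7.0 phosphate/TCEP/2% DMF at room temperature; 200 uM NADPH initiated.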
Regarding `CC(C)CCN(C)C(=O)c1ccccc1S(=O)(=O)Nc1cccnc1` [Example 371, N-methyl-N-(3-methylbutyl)-2-[(pyridin-3-ylamino)sulfonyl]benzamide], the Ki came to 248 nM.
On to `COc1cncc(NS(=O)(=O)c2ccccc2C(=O)N(C)Cc2ccccc2)c1` [Example 372, N-benzyl-2-{[(5-methoxypyridin-3-yl)amino]sulfonyl}-N-methylbenzamide], for which the Ki is 79 nM.
On the same count and under the same terms, to `COc1ccc(CNC(=O)c2ccccc2S(=O)(=O)Nc2cncc(OC)c2)cc1` [Example 373, N-(4-methoxybenzyl)-2-{[(5-methoxypyridin-3-yl)amino]sulfonyl}benzamide] belongs 221 nM; to `COc1cncc(NS(=O)(=O)c2ccccc2C(=O)NC(C)(C)C)c1` [Example 374, N-(tert-butyl)-2-{[(5-methoxypyridin-3-yl)amino]sulfonyl}benzamide], 483 nM; to `COc1cncc(NS(=O)(=O)c2ccccc2C(=O)NCC2CCCC2)c1` [Example 375, N-(cyclopentylmethyl)-2-{[(5-methoxypyridin-3-yl)amino]sulfonyl}benzamide], 142 nM.
Same read-out and setting: as for `CCCCN(C)C(=O)c1ccccc1S(=O)(=O)Nc1cccnc1` [Example 376, N-butyl-N-methyl-2-[(pyridin-3-ylamino)sulfonyl]benzamide], the figure is 117 nM.
Take `CCCCCNC(=O)c1ccccc1S(=O)(=O)Nc1cncc(OC)c1` [Example 377, 2-{[(5-methoxypyridin-3-yl)amino]sulfonyl}-N-pentylbenzamide]: the Ki amounted to 76.3 nM.
Still for that read-out and setting: as for `COc1cncc(NS(=O)(=O)c2ccccc2C(=O)NCc2ccccc2F)c1` [Example 378, N-(2-fluorobenzyl)-2-{[(5-methoxypyridin-3-yl)amino]sulfonyl}benzamide], the figure is 78 nM; as for `COc1cncc(NS(=O)(=O)c2ccccc2C(=O)NCCC(C)C)c1` [Example 379, 2-{[(5-methoxypyridin-3-yl)amino]sulfonyl}-N-(3-methylbutyl)benzamide], 120 nM; as for `COc1cncc(NS(=O)(=O)c2ccccc2C(=O)NCC(C)(C)C)c1` [Example 380, N-(2,2-dimethylpropyl)-2-{[(5-methoxypyridin-3-yl)amino]sulfonyl}benzamide], 215 nM.
The same measure, in the same setting: as for `COc1cncc(NS(=O)(=O)c2ccccc2C(=O)NC(C)(C)c2ccccc2)c1` [Example 381, 2-{[(5-methoxypyridin-3-yl)amino]sulfonyl}-N-(1-methyl-1-phenylethyl)benzamide], the figure is 52 nM; as for `COC[C@H](C)NC(=O)c1ccccc1S(=O)(=O)Nc1cncc(OC)c1` [Example 382, N-[(1S)-2-methoxy-1-methylethyl]-2-{[(5-methoxypyridin-3-yl)amino]sulfonyl}benzamide], 505 nM; as for `COc1cncc(NS(=O)(=O)c2ccccc2C(=O)NCCc2ccncc2)c1` [Example 383, 2-{[(5-methoxypyridin-3-yl)amino]sulfonyl}-N-(2-pyridin-4-ylethyl)benzamide], 912 nM.

Still in this assay, the particulars now being: Super. enzyme preparation, read-out: Kiapp (BFC, Super.).
As to `CC(C)CCN(C)C(=O)c1ccccc1S(=O)(=O)Nc1cccnc1` [Example 371, N-methyl-N-(3-methylbutyl)-2-[(pyridin-3-ylamino)sulfonyl]benzamide], the Ki amounted to 58.8 nM.
`COc1cncc(NS(=O)(=O)c2ccccc2C(=O)N(C)Cc2ccccc2)c1` [Example 372, N-benzyl-2-{[(5-methoxypyridin-3-yl)amino]sulfonyl}-N-methylbenzamide]: the Ki came to 18 nM.
On the same count and under the same terms, as for `COc1ccc(CNC(=O)c2ccccc2S(=O)(=O)Nc2cncc(OC)c2)cc1` [Example 373, N-(4-methoxybenzyl)-2-{[(5-methoxypyridin-3-yl)amino]sulfonyl}benzamide], the figure is 45 nM; as for `COc1cncc(NS(=O)(=O)c2ccccc2C(=O)NC(C)(C)C)c1` [Example 374, N-(tert-butyl)-2-{[(5-methoxypyridin-3-yl)amino]sulfonyl}benzamide], 74.5 nM.
Same read-out and setting: to `COc1cncc(NS(=O)(=O)c2ccccc2C(=O)NCC2CCCC2)c1` [Example 375, N-(cyclopentylmethyl)-2-{[(5-methoxypyridin-3-yl)amino]sulfonyl}benzamide] belongs 31.6 nM; to `CCCCN(C)C(=O)c1ccccc1S(=O)(=O)Nc1cccnc1` [Example 376, N-butyl-N-methyl-2-[(pyridin-3-ylamino)sulfonyl]benzamide], 73 nM; to `CCCCCNC(=O)c1ccccc1S(=O)(=O)Nc1cncc(OC)c1` [Example 377, 2-{[(5-methoxypyridin-3-yl)amino]sulfonyl}-N-pentylbenzamide], 17.6 nM.
Same read-out and setting: to `COc1cncc(NS(=O)(=O)c2ccccc2C(=O)NCc2ccccc2F)c1` [Example 378, N-(2-fluorobenzyl)-2-{[(5-methoxypyridin-3-yl)amino]sulfonyl}benzamide] belongs 18.7 nM; to `COc1cncc(NS(=O)(=O)c2ccccc2C(=O)NCCC(C)C)c1` [Example 379, 2-{[(5-methoxypyridin-3-yl)amino]sulfonyl}-N-(3-methylbutyl)benzamide], 24.6 nM; to `COc1cncc(NS(=O)(=O)c2ccccc2C(=O)NCC(C)(C)C)c1` [Example 380, N-(2,2-dimethylpropyl)-2-{[(5-methoxypyridin-3-yl)amino]sulfonyl}benzamide], 60.7 nM.
Take `COc1cncc(NS(=O)(=O)c2ccccc2C(=O)NC(C)(C)c2ccccc2)c1` [Example 381, 2-{[(5-methoxypyridin-3-yl)amino]sulfonyl}-N-(1-methyl-1-phenylethyl)benzamide]: the Ki was 2.79 nM.
On the same count and under the same terms, as for `COC[C@H](C)NC(=O)c1ccccc1S(=O)(=O)Nc1cncc(OC)c1` [Example 382, N-[(1S)-2-methoxy-1-methylethyl]-2-{[(5-methoxypyridin-3-yl)amino]sulfonyl}benzamide], the figure is 20.1 nM; as for `COc1cncc(NS(=O)(=O)c2ccccc2C(=O)NCCc2ccncc2)c1` [Example 383, 2-{[(5-methoxypyridin-3-yl)amino]sulfonyl}-N-(2-pyridin-4-ylethyl)benzamide], 31 nM.

A further assay deals with T1, CYP3A4. Briefly: Determination of IC50 against CYP3A4 by measurement of inhibition of testosterone metabolism (human liver microsomes, 6-β-OH-testosterone by LC-MS/MS). Type of assay: biochemical. More on the design: 0.1 mg/mL human liver microsomes. The note with it: read-out: IC50 (Testo.). Summed up: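 6-β-OH-testosterone formation was read by LC-MS/MS (MRM, internal standard, standard curve) after eight minutes. Reaction contained testosterone 25 μM, NADPH 1 mM and microsomal protein 0.1 mg/mL in pH 7.4 potassium phosphate (100 mM).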
On the technique in general: Liver microsomes are a subcellular fraction often used to study metabolism.
As for `CC(C)CCN(C)C(=O)c1ccccc1S(=O)(=O)Nc1cccnc1` [Example 371, N-methyl-N-(3-methylbutyl)-2-[(pyridin-3-ylamino)sulfonyl]benzamide], the concentration for half-maximal inhibition (IC50) came out at 10 nM.
Still for that read-out and setting: to `COc1cncc(NS(=O)(=O)c2ccccc2C(=O)N(C)Cc2ccccc2)c1` [Example 372, N-benzyl-2-{[(5-methoxypyridin-3-yl)amino]sulfonyl}-N-methylbenzamide] belongs 23 nM; to `COc1ccc(CNC(=O)c2ccccc2S(=O)(=O)Nc2cncc(OC)c2)cc1` [Example 373, N-(4-methoxybenzyl)-2-{[(5-methoxypyridin-3-yl)amino]sulfonyl}benzamide], 49 nM; to `COc1cncc(NS(=O)(=O)c2ccccc2C(=O)NC(C)(C)C)c1` [Example 374, N-(tert-butyl)-2-{[(5-methoxypyridin-3-yl)amino]sulfonyl}benzamide], 79 nM.
The same measure, in the same setting: as for `COc1cncc(NS(=O)(=O)c2ccccc2C(=O)NCC2CCCC2)c1` [Example 375, N-(cyclopentylmethyl)-2-{[(5-methoxypyridin-3-yl)amino]sulfonyl}benzamide], the figure is 42 nM.
On the same count and under the same terms, to `CCCCN(C)C(=O)c1ccccc1S(=O)(=O)Nc1cccnc1` [Example 376, N-butyl-N-methyl-2-[(pyridin-3-ylamino)sulfonyl]benzamide] belongs 43 nM; to `CCCCCNC(=O)c1ccccc1S(=O)(=O)Nc1cncc(OC)c1` [Example 377, 2-{[(5-methoxypyridin-3-yl)amino]sulfonyl}-N-pentylbenzamide], 33 nM.
Turning to `COc1cncc(NS(=O)(=O)c2ccccc2C(=O)NCc2ccccc2F)c1` [Example 378, N-(2-fluorobenzyl)-2-{[(5-methoxypyridin-3-yl)amino]sulfonyl}benzamide], the IC50 is 14 nM.
Same read-out and setting: as for `COc1cncc(NS(=O)(=O)c2ccccc2C(=O)NCCC(C)C)c1` [Example 379, 2-{[(5-methoxypyridin-3-yl)amino]sulfonyl}-N-(3-methylbutyl)benzamide], the figure is 7 nM.
On the same count and under the same terms, to `COc1cncc(NS(=O)(=O)c2ccccc2C(=O)NCC(C)(C)C)c1` [Example 380, N-(2,2-dimethylpropyl)-2-{[(5-methoxypyridin-3-yl)amino]sulfonyl}benzamide] belongs 29 nM; to `COc1cncc(NS(=O)(=O)c2ccccc2C(=O)NC(C)(C)c2ccccc2)c1` [Example 381, 2-{[(5-methoxypyridin-3-yl)amino]sulfonyl}-N-(1-methyl-1-phenylethyl)benzamide], 64 nM; to `COC[C@H](C)NC(=O)c1ccccc1S(=O)(=O)Nc1cncc(OC)c1` [Example 382, N-[(1S)-2-methoxy-1-methylethyl]-2-{[(5-methoxypyridin-3-yl)amino]sulfonyl}benzamide], 263 nM.
As to `COc1cncc(NS(=O)(=O)c2ccccc2C(=O)NCCc2ccncc2)c1` [Example 383, 2-{[(5-methoxypyridin-3-yl)amino]sulfonyl}-N-(2-pyridin-4-ylethyl)benzamide], the IC50 was determined as 348 nM.

In the next assay the target is T1, CYP3A4. The assay is described as follows: Determination of IC50 against CYP3A4 by measurement of inhibition of midazolam metabolism (human liver microsomes, 1-hydroxymidazolam by LC-MS/MS). Type of assay: biochemical. The arrangement: 0.1 mg/mL human liver microsomes. The note with it: 2 μM midazolam, 0.1 mg/mL human liver microsomes. The method, boiled down: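 Human liver microsomes (0.1 mg/mL) incubated 8 min with 2 μM midazolam and 1 mM NADPH in 100 mM potassium phosphate, pH 7.4. 1-Hydroxymidazolam quantified by LC-MS/MS (MRM) as peak area ratio to internal standard against a metabolite standard curve.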
`CC(C)CCN(C)C(=O)c1ccccc1S(=O)(=O)Nc1cccnc1` [Example 371, N-methyl-N-(3-methylbutyl)-2-[(pyridin-3-ylamino)sulfonyl]benzamide]: the half-maximal inhibitory concentration (IC50) was found to be 5 nM.
Same read-out and setting: to `COc1cncc(NS(=O)(=O)c2ccccc2C(=O)N(C)Cc2ccccc2)c1` [Example 372, N-benzyl-2-{[(5-methoxypyridin-3-yl)amino]sulfonyl}-N-methylbenzamide] belongs 15 nM; to `COc1ccc(CNC(=O)c2ccccc2S(=O)(=O)Nc2cncc(OC)c2)cc1` [Example 373, N-(4-methoxybenzyl)-2-{[(5-methoxypyridin-3-yl)amino]sulfonyl}benzamide], 37 nM; to `COc1cncc(NS(=O)(=O)c2ccccc2C(=O)NC(C)(C)C)c1` [Example 374, N-(tert-butyl)-2-{[(5-methoxypyridin-3-yl)amino]sulfonyl}benzamide], 29 nM.
On the same count and under the same terms, as for `COc1cncc(NS(=O)(=O)c2ccccc2C(=O)NCC2CCCC2)c1` [Example 375, N-(cyclopentylmethyl)-2-{[(5-methoxypyridin-3-yl)amino]sulfonyl}benzamide], the figure is 22 nM.
Still for that read-out and setting: to `CCCCN(C)C(=O)c1ccccc1S(=O)(=O)Nc1cccnc1` [Example 376, N-butyl-N-methyl-2-[(pyridin-3-ylamino)sulfonyl]benzamide] belongs 27 nM.
Take `CCCCCNC(=O)c1ccccc1S(=O)(=O)Nc1cncc(OC)c1` [Example 377, 2-{[(5-methoxypyridin-3-yl)amino]sulfonyl}-N-pentylbenzamide]: the half-maximal inhibitory concentration (IC50) turned out to be 21 nM.
For `COc1cncc(NS(=O)(=O)c2ccccc2C(=O)NCc2ccccc2F)c1` [Example 378, N-(2-fluorobenzyl)-2-{[(5-methoxypyridin-3-yl)amino]sulfonyl}benzamide], the IC50 came out at 13 nM.
The same measure, in the same setting: to `COc1cncc(NS(=O)(=O)c2ccccc2C(=O)NCCC(C)C)c1` [Example 379, 2-{[(5-methoxypyridin-3-yl)amino]sulfonyl}-N-(3-methylbutyl)benzamide] belongs 8 nM.
Same read-out and setting: as for `COc1cncc(NS(=O)(=O)c2ccccc2C(=O)NCC(C)(C)C)c1` [Example 380, N-(2,2-dimethylpropyl)-2-{[(5-methoxypyridin-3-yl)amino]sulfonyl}benzamide], the figure is 21 nM; as for `COc1cncc(NS(=O)(=O)c2ccccc2C(=O)NC(C)(C)c2ccccc2)c1` [Example 381, 2-{[(5-methoxypyridin-3-yl)amino]sulfonyl}-N-(1-methyl-1-phenylethyl)benzamide], 30 nM.
The same measure, in the same setting: as for `COC[C@H](C)NC(=O)c1ccccc1S(=O)(=O)Nc1cncc(OC)c1` [Example 382, N-[(1S)-2-methoxy-1-methylethyl]-2-{[(5-methoxypyridin-3-yl)amino]sulfonyl}benzamide], the figure is 68 nM; as for `COc1cncc(NS(=O)(=O)c2ccccc2C(=O)NCCc2ccncc2)c1` [Example 383, 2-{[(5-methoxypyridin-3-yl)amino]sulfonyl}-N-(2-pyridin-4-ylethyl)benzamide], 67 nM.

Usually IC50 stands for the concentration that gives 50% inhibition.
